PubChem BioAssay AID1845212 (Molecular Pharmacology Branch, DTP, NCI, 2023)

System: NCI-H719 tumor spheroids, viability
Test: Anticancer human tumor NCI-H719 cell line growth inhibition;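 further: spheroids exposed to compounds for seven days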;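 on viability, T/C: percent viability relative to DMSO vehicle control as 100%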
Conditions: spheroids with HUVEC and MSC; for IC50: curve of first compound; for viability, T/C: stronger effect = lower value
From the text: Multicellular complex tumor spheroid response to DNA repair inhibitors in combination with DNA-damaging drugs
This study explores the anticancer activities of DNA-damaging drugs and inhibitors of DNA damage repair, both as single agents and in combinations. Complex tumor spheroids comprised of malignant cells, endothelial cells and mesenchymal stem cells served as an in vitro model for human solid tumors. This model system incorporates physiologically relevant features and patient-derived or established malignant cell lines with clinically relevant genetic alterations from many tumor types. Twenty-six patient-derived or established malignant cell lines were evaluated representing sarcoma, melanoma, small cell lung cancer (SCLC), non-small cell lung cancer (NSCLC), as well as bladder, ovarian and pancreatic cancers. The concentration ranges selected for each drug and investigational agent were based upon clinically achievable concentrations if the clinical Cmax of the agent was known.
Compounds. The drugs and compounds olaparib (NSC753686), talazoparib (NSC767125), berzosertib (NSC777718), elimusertib (NSC800525), nedisertib (NSC802822), VX-984 (NSC792969), AZD-1390 (NSC803789), temozolomide (NSC362856), topotecan (NSC609699), trabectedin (NSC813783), staurosporine (NSC755774), and gemcitabine (NSC613327) were obtained from the National Cancer Institute (NCI) Developmental Therapeutics Program Chemical Repository. The FDA-approved anticancer drug set is available from the Developmental Therapeutics Program at https://dtp.cancer.gov/organization/dscb/obtaining/available_plates.htm. […] The stock solutions were prepared in dimethyl sulfoxide (DMSO, Sigma-Aldrich, St. Louis, MO, cat. D2650) at 400-fold the tested concentration and stored at -70 degrees C. Prior to their use, the stock solutions were diluted in fresh medium and the final DMSO concentration in the assay was 0.25% (v/v). All drugs and investigational agents were tested over a range starting from a high concentration at or near the clinical Cmax and decreasing in half-log increments. If the clinical Cmax for an agent had not been determined, the highest concentration tested was 10 microM.
Cell Lines. The patient-derived cancer cell (PDC) lines: 156681-154-R-J1-PDC, 283228-195-R-J1-PDC, 287954-098-R-J1-PDC, 292921-168-R-J2-PDC, 349418-098-R-PDC, 425362-245-T-J1-PDC, 556581-035-R-J1-PDC, and BL0293-F563-PDC were received from the NCI Patient-Derived Models Repository (PDMR, https://pdmr.cancer.gov). The established cell lines HS-SY-2 (RRID:CVCL_8719), MPNST, and SYO-1 (RRID:CVCL_7146) were obtained from the Sloan Kettering Institute. The alveolar soft parts sarcoma cell line ASPS-1 (RRID:CVCL_S738) was established at the NCI and grown from internal seed stocks. The following established cell lines were purchased from the American Type Culture Collection (ATCC, Manassas, VA): G-401 (ATCC, cat. CRL-1441, RRID:CVCL_0270), SW982 (ATCC, cat. HTB-93, RRID:CVCL_1734), VA-ES-BJ (ATCC, cat. CRL-2138, RRID:CVCL_1785), NCI-H719 (ATCC, cat. CRL-5837, RRID:CVCL_1582), NCI-H196 (ATCC, cat. CRL-5823, RRID:CVCL_1509), NCI-H841 (ATCC, cat. CRL-5845, RRID:CVCL_1595), NCI-H1618 (ATCC, cat. CRL-5879, RRID:CVCL_1480), NCI-H1876 (ATCC, cat. CRL-5902, RRID:CVCL_1503), DMS 114 (ATCC, cat. CRL-2066; RRID:CVCL_1174), NCI-H211 (ATCC, cat. CRL-5824; RRID:CVCL_1529), and SW 1271 (ATCC, cat. CRL-2177, RRID:CVCL_1716). The small cell lung cancer cell line COR-L88 was purchased from Sigma-Aldrich (cat. 92031917-1VL, RRID:CVCL_1141). The non-small cell lung cancer cell lines NCI-H226 (RRID:CVCL_1544) and NCI-H322M (RRID:CVCL_1557) were established at the NCI and grown from internal seed stocks. Pooled donor human umbilical vein endothelial cells (HUVEC, Lonza, cat. CC-2519) and human mesenchymal stem cells (hMSC, Lonza, cat. PT-2501) were purchased from Lonza (Walkersville, MD).
Cell Culture. All cells were maintained in an incubator at 37 degrees C and 5% CO2 with 95% humidity. […]

[1] = second compound 0.003 µM, first compound 0.00949 µM
[2] = second compound 0.003 µM, first compound 0.03 µM
[3] = second compound 0.003 µM, first compound 0.0949 µM
[4] = second compound 0.003 µM, first compound 0.3 µM
[5] = second compound 0.003 µM, first compound 0.949 µM
[6] = second compound 0.003 µM, first compound 3 µM
[7] = second compound 0.00949 µM, first compound 0.00949 µM
[8] = second compound 0.00949 µM, first compound 0.03 µM
[9] = second compound 0.00949 µM, first compound 0.0949 µM
[10] = second compound 0.00949 µM, first compound 0.3 µM
[11] = second compound 0.00949 µM, first compound 0.949 µM
[12] = second compound 0.00949 µM, first compound 3 µM
[13] = second compound 0.03 µM, first compound 0.00949 µM
[14] = second compound 0.03 µM, first compound 0.03 µM
[15] = second compound 0.03 µM, first compound 0.0949 µM
[16] = second compound 0.03 µM, first compound 0.3 µM
[17] = second compound 0.03 µM, first compound 0.949 µM
[18] = second compound 0.03 µM, first compound 3 µM
[19] = second compound 0.0949 µM, first compound 0.00949 µM
[20] = second compound 0.0949 µM, first compound 0.03 µM
[21] = second compound 0.0949 µM, first compound 0.0949 µM
[22] = second compound 0.0949 µM, first compound 0.3 µM
[23] = second compound 0.0949 µM, first compound 0.949 µM
[24] = second compound 0.0949 µM, first compound 3 µM
[25] = second compound 0.3 µM, first compound 0.00949 µM
[26] = second compound 0.3 µM, first compound 0.03 µM
[27] = second compound 0.3 µM, first compound 0.0949 µM
[28] = second compound 0.3 µM, first compound 0.3 µM
[29] = second compound 0.3 µM, first compound 0.949 µM
[30] = second compound 0.3 µM, first compound 3 µM

Compound	IC50 (second compound 0.003 µM)	IC50 (second compound 0.00949 µM)	IC50 (second compound 0.03 µM)	IC50 (second compound 0.0949 µM)	IC50 (second compound 0.3 µM)	viability, T/C [3]	viability, T/C [4]	viability, T/C [5]	viability, T/C [6]	viability, T/C [9]	viability, T/C [10]	viability, T/C [11]	viability, T/C [12]	viability, T/C [15]	viability, T/C [16]	viability, T/C [17]	viability, T/C [18]	viability, T/C [21]	viability, T/C [22]	viability, T/C [23]	also measured
CNCc1ccc(-c2cc(-c3nc(-c4ccc(S(=O)(=O)C(C)C)cc4)cnc3N)on2)cc1 + CC[C@@]1(O)C(=O)OCc2c1cc1n(c2=O)Cc2cc3c(CN(C)C)c(O)ccc3nc2-1	11.2 nM	< 9.49 nM	< 9.49 nM	< 9.49 nM	< 9.49 nM	15.8%	7.57%	6.32%	0.12%	6.36%	7.36%	7.1%	0.13%	6.09%	8.62%	7.57%	0.1%	7.1%	8.34%	8.45%	viability, T/C [1]: 51%; viability, T/C [2]: 42.9%; viability, T/C [7]: 12.4%; viability, T/C [8]: 6.06%; viability, T/C [13]: 5.87%; viability, T/C [14]: 9.07%; viability, T/C [19]: 5.51%; viability, T/C [20]: 6.14%; viability, T/C [24]: 0.11%; viability, T/C [25]: 6.1%; viability, T/C [26]: 6.24%; viability, T/C [27]: 7.61%; viability, T/C [28]: 8.16%; viability, T/C [29]: 6.89%; viability, T/C [30]: 0.15%
Cn1ncnc1[C@H]1c2n[nH]c(=O)c3cc(F)cc(c23)N[C@@H]1c1ccc(F)cc1 + CC[C@@]1(O)C(=O)OCc2c1cc1n(c2=O)Cc2cc3c(CN(C)C)c(O)ccc3nc2-1	< 9.49 nM	< 9.49 nM	< 9.49 nM	< 9.49 nM	< 9.49 nM	5.99%	5.19%	4.99%	5.85%	5.47%	5.57%	5.5%	6.37%	4.9%	5.13%	5.61%	6.6%	6.09%	5.95%	5.66%	viability, T/C [1]: 5.32%; viability, T/C [2]: 5.79%; viability, T/C [7]: 5.81%; viability, T/C [8]: 5.54%; viability, T/C [13]: 5.15%; viability, T/C [14]: 5.23%; viability, T/C [19]: 5.2%; viability, T/C [20]: 5.29%; viability, T/C [24]: 7.03%; viability, T/C [25]: 5.56%; viability, T/C [26]: 5.67%; viability, T/C [27]: 5.84%; viability, T/C [28]: 5.89%; viability, T/C [29]: 6.04%; viability, T/C [30]: 5.47%
O=C(c1cc(Cc2n[nH]c(=O)c3ccccc23)ccc1F)N1CCN(C(=O)C2CC2)CC1 + CC[C@@]1(O)C(=O)OCc2c1cc1n(c2=O)Cc2cc3c(CN(C)C)c(O)ccc3nc2-1	< 94.9 nM	< 94.9 nM	< 94.9 nM	< 94.9 nM	< 94.9 nM	8.96%	7.42%	6.71%	6.81%	6.26%	5.9%	6.11%	5.87%	5.59%	5.66%	6.11%	5.5%	5.78%	5.76%	5.69%	viability, T/C (second compound 0.003 µM, first compound 9.49 µM): 5.81%; viability, T/C (second compound 0.003 µM, first compound 30 µM): 4.97%; viability, T/C (second compound 0.00949 µM, first compound 9.49 µM): 5.83%; viability, T/C (second compound 0.00949 µM, first compound 30 µM): 5.35%; viability, T/C (second compound 0.03 µM, first compound 9.49 µM): 5.9%; viability, T/C (second compound 0.03 µM, first compound 30 µM): 5.66%; viability, T/C [24]: 5.69%; viability, T/C (second compound 0.0949 µM, first compound 9.49 µM): 5.97%; viability, T/C (second compound 0.0949 µM, first compound 30 µM): 5.61%; viability, T/C [27]: 5.43%; viability, T/C [28]: 5.79%; viability, T/C [29]: 6.36%; viability, T/C [30]: 5.43%; viability, T/C (second compound 0.3 µM, first compound 9.49 µM): 5.25%; viability, T/C (second compound 0.3 µM, first compound 30 µM): 4.62%
